Laboratory results: BindingDB's records for doi:10.1021/acs.jmedchem.7b00782 (Jadavpur University, 2018)

Test: Inhibition of LAP (unknown origin)

| Ki [µM] | SMILES |
| --- | --- |
| 56 | CC(C)CC(N)P(=O)(O)C(=O)N[C@H](CC(C)C)C(=O)O (some centres undefined) |
| 1.3 | CC(C)CC(N)B1OC(C)(C)C(C)(C)O1 (centres undefined) |
| 90 | CC(N)B1OC(C)(C)C(C)(C)O1 (centres undefined) |
| 0.05 | CC1(C)OB(C(N)Cc2ccccc2)OC1(C)C (centres undefined) |
